Active and inactive are the calls of the source. No rule for the calls is given here.
Tested on: CCRIS mutagenicity, Ames/micronucleus/aberration tests
Experiment: CCRIS mutagenicity studies
[1] = Test System: AMES SALMONELLA TYPHIMURIUM, Strain/Indicator: TA98, Metabolic Activation: NONE, Method: STANDARD PLATE
[2] = Test System: AMES SALMONELLA TYPHIMURIUM, Strain/Indicator: TA98, Metabolic Activation: RAT, LIVER, S-9, AROCLOR 1254, Method: STANDARD PLATE
[3] = Test System: AMES SALMONELLA TYPHIMURIUM, Strain/Indicator: TA100, Metabolic Activation: NONE, Method: STANDARD PLATE
[4] = Test System: AMES SALMONELLA TYPHIMURIUM, Strain/Indicator: TA100, Metabolic Activation: RAT, LIVER, S-9, AROCLOR 1254, Method: STANDARD PLATE
[5] = Test System: AMES SALMONELLA TYPHIMURIUM, Strain/Indicator: TA98, Metabolic Activation: NONE, Method: PREINCUBATION
[6] = Test System: AMES SALMONELLA TYPHIMURIUM, Strain/Indicator: TA98(1,8-DNP6), Metabolic Activation: NONE, Method: STANDARD PLATE
[7] = Test System: AMES SALMONELLA TYPHIMURIUM, Strain/Indicator: TA98(NR), Metabolic Activation: NONE, Method: STANDARD PLATE

SMILES: CC1=CCC(C(C)(C)O)CC1 (stereo unspecified)
- mutagenic call (Test System: AMES SALMONELLA TYPHIMURIUM, Strain/Indicator: TA97A, Metabolic Activation: NONE, Method: STANDARD PLATE): inactive; negative
- mutagenic call (Test System: AMES SALMONELLA TYPHIMURIUM, Strain/Indicator: TA97A, Metabolic Activation: RAT LIVER S-9, AROCLOR 1254, Method: STANDARD PLATE): inactive; negative
- mutagenic call (Test System: AMES SALMONELLA TYPHIMURIUM, Strain/Indicator: TA98, Metabolic Activation: HAMSTER, LIVER, S-9, AROCLOR 1254, Method: STANDARD PLATE): inactive; negative
- mutagenic call [1]: inactive; negative
- mutagenic call (Test System: AMES SALMONELLA TYPHIMURIUM, Strain/Indicator: TA98, Metabolic Activation: RAT LIVER S-9 AROCLOR 1254, Method: STANDARD PLATE): inactive; negative
- mutagenic call [2]: inactive; negative
- mutagenic call (Test System: AMES SALMONELLA TYPHIMURIUM, Strain/Indicator: TA100, Metabolic Activation: HAMSTER, LIVER, S-9, AROCLOR 1254, Method: STANDARD PLATE): inactive; negative
- mutagenic call [3]: inactive; negative
- mutagenic call (Test System: AMES SALMONELLA TYPHIMURIUM, Strain/Indicator: TA100, Metabolic Activation: RAT LIVER S-9, AROCLOR 1254, Method: STANDARD PLATE): inactive; negative
- mutagenic call [4]: inactive; negative
- mutagenic call (Test System: AMES SALMONELLA TYPHIMURIUM, Strain/Indicator: TA1535, Metabolic Activation: HAMSTER, LIVER, S-9, AROCLOR 1254, Method: STANDARD PLATE): inactive; negative
- mutagenic call (Test System: AMES SALMONELLA TYPHIMURIUM, Strain/Indicator: TA1535, Metabolic Activation: NONE, Method: STANDARD PLATE): inactive; negative
- mutagenic call (Test System: AMES SALMONELLA TYPHIMURIUM, Strain/Indicator: TA1535, Metabolic Activation: RAT, LIVER, S-9, AROCLOR 1254, Method: STANDARD PLATE): inactive; negative
- mutagenic call (Test System: AMES SALMONELLA TYPHIMURIUM, Strain/Indicator: TA1537, Metabolic Activation: HAMSTER, LIVER, S-9, AROCLOR 1254, Method: STANDARD PLATE): inactive; negative
- mutagenic call (Test System: AMES SALMONELLA TYPHIMURIUM, Strain/Indicator: TA1537, Metabolic Activation: NONE, Method: STANDARD PLATE): inactive; negative
- mutagenic call (Test System: AMES SALMONELLA TYPHIMURIUM, Strain/Indicator: TA1537, Metabolic Activation: RAT, LIVER, S-9, AROCLOR 1254, Method: STANDARD PLATE): inactive; negative
- mutagenic call (Test System: AMES SALMONELLA TYPHIMURIUM, Strain/Indicator: TA1538, Metabolic Activation: HAMSTER, LIVER, S-9, AROCLOR 1254, Method: STANDARD PLATE): inactive; negative
- mutagenic call (Test System: AMES SALMONELLA TYPHIMURIUM, Strain/Indicator: TA1538, Metabolic Activation: NONE, Method: STANDARD PLATE): inactive; negative
- mutagenic call (Test System: AMES SALMONELLA TYPHIMURIUM, Strain/Indicator: TA1538, Metabolic Activation: RAT, LIVER, S-9, AROCLOR 1254, Method: STANDARD PLATE): inactive; negative
- mutagenic call (Test System: MOUSE LYMPHOMA, Strain/Indicator: L5178Y (TK+/TK-), Metabolic Activation: NONE, Method: SUSPENSION/PLATE): inactive; negative. reevaluation of results: negative
- mutagenic call (Test System: MOUSE LYMPHOMA, Strain/Indicator: L5178Y (TK+/TK-), Metabolic Activation: RAT, LIVER, S-9, AROCLOR 1254, Method: SUSPENSION/PLATE): inactive; negative. reevaluation of results: negative

SMILES: O=[N+]([O-])c1ccc(Nc2ccc(Cl)cc2)cc1
- mutagenic call [5]: inactive; negative
- mutagenic call (Test System: AMES SALMONELLA TYPHIMURIUM, Strain/Indicator: TA98, Metabolic Activation: RAT, LIVER, S-9, AROCLOR 1254, Method: PREINCUBATION): active; positive

SMILES: O=[N+]([O-])c1ccc2c(c1)CCc1ccccc1-2
- mutagenic call [6]: active; positive
- mutagenic call [7]: active; positive
- mutagenic call [1]: active; positive

SMILES: Cc1ccccc1OCC(O)CNCCOc1ccc(C(N)=O)cc1 (stereo unspecified)
- mutagenic call [1]: inactive; negative
- mutagenic call [2]: inactive; negative
- mutagenic call [3]: inactive; negative
- mutagenic call [4]: inactive; negative

SMILES: Oc1c(Cl)cc(Cl)c2cccnc12
- mutagenic call [5]: inactive; negative
- mutagenic call (Test System: AMES SALMONELLA TYPHIMURIUM, Strain/Indicator: TA98, Metabolic Activation: RAT, LIVER, S-9, Method: PREINCUBATION): inactive; negative
- mutagenic call (Test System: AMES SALMONELLA TYPHIMURIUM, Strain/Indicator: TA100, Metabolic Activation: NONE, Method: PREINCUBATION): inactive; negative
- mutagenic call (Test System: AMES SALMONELLA TYPHIMURIUM, Strain/Indicator: TA100, Metabolic Activation: RAT, LIVER, S-9, Method: PREINCUBATION): inactive; negative

SMILES: O=[N+]([O-])c1ccc2ccc3c([N+](=O)[O-])cccc3c2c1
- mutagenic call [6]: active; positive
- mutagenic call [7]: active; positive
- mutagenic call [1]: active; positive
- mutagenic call [3]: active; positive
- mutagenic call (Test System: AMES SALMONELLA TYPHIMURIUM, Strain/Indicator: YG1021, Metabolic Activation: NONE, Method: STANDARD PLATE): active; positive
- mutagenic call (Test System: AMES SALMONELLA TYPHIMURIUM, Strain/Indicator: YG1024, Metabolic Activation: NONE, Method: STANDARD PLATE): active; positive
- mutagenic call (Test System: AMES SALMONELLA TYPHIMURIUM, Strain/Indicator: YG1026, Metabolic Activation: NONE, Method: STANDARD PLATE): active; positive
- mutagenic call (Test System: AMES SALMONELLA TYPHIMURIUM, Strain/Indicator: YG1029, Metabolic Activation: NONE, Method: STANDARD PLATE): active; positive

SMILES: CN=C([S-])N/N=C/C(C)=N/NC([S-])=NC.[Cu+2]
- mutagenic call [1]: inactive; negative
- mutagenic call (Test System: AMES SALMONELLA TYPHIMURIUM, Strain/Indicator: TA98, Metabolic Activation: RAT, LIVER, S-9, AROCLOR, Method: STANDARD PLATE): inactive; negative
- mutagenic call [3]: inactive; negative
- mutagenic call (Test System: AMES SALMONELLA TYPHIMURIUM, Strain/Indicator: TA100, Metabolic Activation: RAT, LIVER, S-9, AROCLOR, Method: STANDARD PLATE): inactive; negative

SMILES: CCc1c(N)ccc2ccccc12
- mutagenic call [1]: inactive; negative
- mutagenic call (Test System: AMES SALMONELLA TYPHIMURIUM, Strain/Indicator: TA98, Metabolic Activation: RAT LIVER S-9, AROCLOR, Method: STANDARD PLATE): active; positive
- mutagenic call [3]: inactive; negative
- mutagenic call (Test System: AMES SALMONELLA TYPHIMURIUM, Strain/Indicator: TA100, Metabolic Activation: RAT LIVER S-9, AROCLOR, Method: STANDARD PLATE): active; positive

SMILES: NC(=O)c1cccnc1
- mutagenic call (Test System: AMES SALMONELLA TYPHIMURIUM, Strain/Indicator: TA97A, Metabolic Activation: NONE, Method: PREINCUBATION): inactive; negative
- mutagenic call (Test System: AMES SALMONELLA TYPHIMURIUM, Strain/Indicator: TA97A, Metabolic Activation: RAT, LIVER, S-9, AROCLOR 1254, Method: PREINCUBATION): inactive; negative
- mutagenic call (Test System: AMES SALMONELLA TYPHIMURIUM, Strain/Indicator: TA102, Metabolic Activation: NONE, Method: PREINCUBATION): inactive; negative
- mutagenic call (Test System: AMES SALMONELLA TYPHIMURIUM, Strain/Indicator: TA102, Metabolic Activation: RAT, LIVER, S-9, AROCLOR 1254, Method: PREINCUBATION): inactive; negative

SMILES: O=[N+]([O-])c1cc2cccc3c4ccccc4c4cccc1c4c23
- mutagenic call (Test System: AMES SALMONELLA TYPHIMURIUM, Strain/Indicator: TA98, Metabolic Activation: NONE', Method: STANDARD PLATE): active; positive
- mutagenic call [3]: active; positive

SMILES: CC1(C)CC(N)CC(C)(C)N1[O]
- mutagenic call [1]: active; positive
- mutagenic call (Test System: AMES SALMONELLA TYPHIMURIUM, Strain/Indicator: TA98, Metabolic Activation: RAT LIVER S-9, PCB, Method: STANDARD PLATE): inactive; negative
- mutagenic call [3]: active; positive
- mutagenic call (Test System: AMES SALMONELLA TYPHIMURIUM, Strain/Indicator: TA100, Metabolic Activation: RAT LIVER S-9, PCB, Method: STANDARD PLATE): inactive; negative
- mutagenic call (Test System: AMES SALMONELLA TYPHIMURIUM, Strain/Indicator: TA102, Metabolic Activation: NONE, Method: STANDARD PLATE): inactive; negative
